From patent US8097282B2, “Methods of administering liquid droplet aerosols of nanoparticulate drugs” (Alkermes Pharma Ireland Limited, priority 1995, dated 2012)

Legend:
[1] = Mean particle size of roller-milled WIN 68209 suspension; assay type: physicochemical; settings: 30% suspension in aqueous F108 surfactant (6%), 7 days roller milling
Procedure: (§1) In this example, a suspension of WIN 68209 (30%) in aqueous F108 surfactant (6%) was prepared by conventional roller milling techniques (jar mill, zirconium silicate beads, 7 days milling time). The mean particle size of the resultant distribution was 196 nm. The formulation was administered to an anesthetized rabbit as follows: Several mL of formulation was placed in an ultrasonic nebulizer (DeVilbiss AeroSonic™) which was connected in-line with a mechanical ventilator, terminating in a suitable endotracheal tube. The rabbit was then intubated and administered the nebulized formulation for several minutes.

[2] = system: rabbit's pulmonary region; test: Computed tomography (CT) after administration of ultrasonically nebulized formulation to an intubated anesthetized rabbit; assay type: in vivo; settings: ultrasonic nebulizer, several minutes, 30% suspension in 6% F108
Procedure: as §1

[3] = assay type: physicochemical
Procedure: Nanoparticle Preparation and Characterization. Nanoparticles were prepared by media milling a suspension of 5% beclomethasone diproprionate in an aqueous solutions of PVA. Thus, the PVA was the surface modifier. The resulting particle size distribution was determined by dynamic light scattering. The particle size distribution was periodically monitored throughout the course of the study. […] In addition, particle size of the diluted dispersions remained constant for at least the duration of the experiment.

| particle size distribution ([3]; nanoparticles in 2.5% polyvinyl alcohol) [micrometer] | SMILES | mean particle size [1] [nm] | CT scans of pulmonary region after nebulized administration [2] | chemical stability [3] | particle size stability [3] |
| --- | --- | --- | --- | --- | --- |
| – | CCOC(=O)C=C(COC(=O)c1c(I)c(NC(C)=O)c(I)c(NC(C)=O)c1I)OCC [WIN 68209, benzoic acid, 3,5-bis(acetylamino)-2,4,6triodo-, 4(ethyl-3-ethoxy-2-butenoate) ester] | 196 | showed the presence of radiopaque contrast agent in the region | – | – |
| 0.26±0.13 | CCC(=O)OCC(=O)[C@@]1(OC(=O)CC)[C@@H](C)C[C@H]2[C@@H]3CCC4=CC(=O)C=C[C@]4(C)[C@@]3(Cl)[C@@H](O)C[C@@]21C.O [beclomethasone diproprionate, Beclomethasone diproprionate] | – | – | neither was there any evidence of chemical instability | remained constant throughout the course of the study |
